In patent US7138361B2, “Herbicidal heterocycles” (E. I. du Pont de Nemours and Company, priority 2000, dated 2006):

Tests used:
Type in all cases: in vivo
[1] = system: blackgrass (Alopecurus myosuroides); assay: Test B postemergence
Outline: (§1)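 Greenhouse test: chemicals are formulated in a surfactant-containing non-phytotoxic solvent and applied either preemergence to planted seeds or postemergence to plants 2 to 18 cm tall. Response is rated visually versus controls after 13 to 15 days, 0 meaning no effect and 100 complete control.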

[2] = system: cocklebur (Xanthium strumarium); assay: Test B postemergence
Outline: as §1

[3] = system: crabgrass (Digitaria sanguinalis); assay: Test B postemergence; conditions: Rate 125 g/ha, scale 0 to 100, 0 no effect, 100 complete control
Outline: as §1

Nightshade = assay: Test C preemergence
[4] = system: Surinam grass (Brachiaria decumbens); assay: Test C preemergence; conditions: for Plant response rating (0 to 100), Surinam grass: Rate 500 g/ha, visual evaluation after 12 to 14 days
Outline: (§2)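 Formulation: non-phytotoxic solvent mix incl. surfactant. Pre: applied right after planting. Post: 1–4-leaf seedlings. Read: visual 0–100, day 12–14, greenhouse.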

[5] = system: bermudagrass (Cynodon dactylon); assay: Test C preemergence; conditions: for Plant response rating (0 to 100 where 0 is no effect and 100 is complete control), Bermudagrass: Rate 500 g/ha, visual evaluation after 12 to 14 days
Outline: as §2

[6] = system: cocklebur (Xanthium strumarium); assay: Test C preemergence; conditions: for Plant response rating (0 to 100), Cocklebur: Rate 500 g/ha, visual evaluation after 12 to 14 days
Outline: as §2

[7] = system: common ragweed (Ambrosia elatior); assay: Test C preemergence; conditions: for Plant response rating (0 to 100), Ragweed, Common: Rate 500 g/ha, visual evaluation after 12 to 14 days
Outline: as §2

corn (Zea mays) = assay: Test C preemergence; conditions: for Plant response rating (0 to 100), Corn: Rate 500 g/ha, visual evaluation after 12 to 14 days
Outline: as §2

[8] = system: crabgrass (Digitaria sanguinalis); assay: Test C preemergence; conditions: for Plant response rating (0 to 100), Crabgrass: Rate 500 g/ha, visual evaluation after 12 to 14 days
Outline: as §2

[9] = system: giant foxtail (Setaria faberii); assay: Test C preemergence; conditions: for Plant response rating (0 to 100), Foxtail, Giant: Rate 500 g/ha, visual evaluation after 12 to 14 days
Outline: as §2

[10] = system: goosegrass (Eleusine indica); assay: Test C preemergence; conditions: for Plant response rating (0 to 100), Goosegrass: Rate 500 g/ha, visual evaluation after 12 to 14 days
Outline: as §2

[11] = system: johnsongrass (Sorghum halepense); assay: Test C preemergence; conditions: for Plant response rating (0 to 100), Johnsongrass: Rate 500 g/ha, visual evaluation after 12 to 14 days
Outline: as §2

kochia (Kochia scoparia) = assay: Test C preemergence; conditions: for Plant response rating (0 to 100), Kochia: Rate 500 g/ha, visual evaluation after 12 to 14 days
Outline: as §2

[12] = system: lambsquarters (Chenopodium album); assay: Test C preemergence; conditions: for Plant response rating (0 to 100), Lambsquarters: Rate 500 g/ha, visual evaluation after 12 to 14 days
Outline: as §2

[13] = system: morningglory (Ipomoea hederacea); assay: Test C preemergence; conditions: for Plant response rating (0 to 100), Morningglory: Rate 500 g/ha, visual evaluation after 12 to 14 days
Outline: as §2

soybean (Glycine max) = assay: Test C preemergence; conditions: for Plant response rating (0 to 100), Soybean: Rate 500 g/ha, visual evaluation after 12 to 14 days
Outline: as §2

[14] = system: yellow nutsedge (Cyperus esculentus); assay: Test C preemergence; conditions: for Plant response rating (0 to 100), Nutsedge: Rate 500 g/ha, visual evaluation after 12 to 14 days
Outline: as §2

Sunflower = assay: Test C preemergence; conditions: Rate 250 g/ha, scale 0 to 100, 0 no effect, 100 complete control
[15] = Rate 125 g/ha, scale 0 to 100, 0 no effect, 100 complete control
[16] = Rate 500 g/ha, scale 0 to 100, 0 is no effect, 100 is complete control, 13 to 15 days
[17] = Rate 250 g/ha, scale 0 to 100, 0 no effect, 100 complete control
[18] = preemergence, Rate 62 g/ha, scale 0 to 100
[19] = preemergence, Rate 250 g/ha, scale 0 to 100, 0 no effect, 100 complete control

CCC(CC)c1ccn(C2CCN(c3ccc(Cl)c(OC)c3)C2=O)n1 (stereo not shown) [Compound 118]
Plant response rating, Blackgrass [1, 15]: 0
Plant response rating, Blackgrass [1, 16]: 0
Plant response rating, Cocklebur [2, 15]: 60
Plant response rating, Cocklebur [2, 16]: 100
Plant response rating, Crabgrass [3]: 40
Plant response rating, Nightshade (Nightshade; Rate 62 g/ha, scale 0 to 100): 100
Plant response rating, Nightshade (Nightshade; [15]): 100
Plant response rating, Nightshade (Nightshade; [17]): 100
Plant response rating, Surinam grass [4, 15]: 10
Plant response rating, Surinam grass [4, 18]: 0
Plant response rating (0 to 100), Surinam grass ([4]; preemergence): 50
Plant response rating, Surinam grass [4, 19]: 30
Plant response rating, Bermudagrass [5, 15]: 100
Plant response rating, Bermudagrass [5, 18]: 100
Plant response rating (0 to 100 where 0 is no effect and 100 is complete control), Bermudagrass ([5]; preemergence): 100
Plant response rating, Bermudagrass [5, 19]: 100
Plant response rating, Cocklebur [6, 15]: 0
Plant response rating, Cocklebur [6, 18]: 0
Plant response rating (0 to 100), Cocklebur ([6]; preemergence): 0
Plant response rating, Cocklebur [6, 19]: 0
Plant response rating, Ragweed, Common [7, 18]: 60
Plant response rating (0 to 100), Ragweed, Common ([7]; preemergence): 100
Plant response rating, Ragweed, Common [7, 19]: 80
Plant response rating, Corn (corn (Zea mays); [15]): 0
Plant response rating, Corn (corn (Zea mays); [18]): 0
Plant response rating (0 to 100), Corn (corn (Zea mays); preemergence): 35
Plant response rating, Corn (corn (Zea mays); [19]): 10
Plant response rating, Crabgrass [8, 15]: 100
Plant response rating, Crabgrass [8, 18]: 100
Plant response rating (0 to 100), Crabgrass ([8]; preemergence): 100
Plant response rating, Crabgrass [8, 19]: 100
Plant response rating, Foxtail, Giant [9, 15]: 100
Plant response rating, Foxtail, Giant [9, 18]: 0
Plant response rating (0 to 100), Foxtail, Giant ([9]; preemergence): 100
Plant response rating, Foxtail, Giant [9, 19]: 100
Plant response rating, Goosegrass [10, 15]: 100
Plant response rating, Goosegrass [10, 18]: 100
Plant response rating (0 to 100), Goosegrass ([10]; preemergence): 100
Plant response rating, Goosegrass [10, 19]: 100
Plant response rating, Johnsongrass [11, 15]: 40
Plant response rating, Johnsongrass [11, 18]: 0
Plant response rating (0 to 100), Johnsongrass ([11]; preemergence): 100
Plant response rating, Johnsongrass [11, 19]: 70
Plant response rating, Kochia (kochia (Kochia scoparia); [15]): 100
Plant response rating, Kochia (kochia (Kochia scoparia); [18]): 80
Plant response rating (0 to 100), Kochia (kochia (Kochia scoparia); preemergence): 100
Plant response rating, Kochia (kochia (Kochia scoparia); [19]): 100
Plant response rating, Lambsquarters [12, 15]: 100
Plant response rating, Lambsquarters [12, 18]: 100
Plant response rating (0 to 100), Lambsquarters ([12]; preemergence): 100
Plant response rating, Lambsquarters [12, 19]: 100
Plant response rating, Morningglory [13, 15]: 20
Plant response rating, Morningglory [13, 18]: 0
Plant response rating (0 to 100), Morningglory ([13]; preemergence): 100
Plant response rating, Morningglory [13, 19]: 90
Plant response rating, Soybean (soybean (Glycine max); [15]): 60
Plant response rating, Soybean (soybean (Glycine max); [18]): 40
Plant response rating (0 to 100), Soybean (soybean (Glycine max); preemergence): 90
Plant response rating, Soybean (soybean (Glycine max); [19]): 65
Plant response rating, Nutsedge [14, 15]: 0
Plant response rating, Nutsedge [14, 18]: 0
Plant response rating (0 to 100), Nutsedge ([14]; preemergence): 0
Plant response rating, Nutsedge [14, 19]: 0
Plant response rating, Sunflower (Sunflower): 60

CCC(C)c1ccn(C2CCN(c3ccc(Cl)c(OC)c3)C2=O)n1 (stereo not shown) [Compound 119]
Plant response rating, Blackgrass [1, 15]: 0
Plant response rating, Blackgrass [1, 16]: 0
Plant response rating, Cocklebur [2, 15]: 90
Plant response rating, Cocklebur [2, 16]: 100
Plant response rating, Crabgrass [3]: 40
Plant response rating, Nightshade (Nightshade; Rate 62 g/ha, scale 0 to 100): 100
Plant response rating, Nightshade (Nightshade; [15]): 100
Plant response rating, Nightshade (Nightshade; [17]): 100
Plant response rating, Surinam grass [4, 15]: 100
Plant response rating, Surinam grass [4, 18]: 100
Plant response rating (0 to 100), Surinam grass ([4]; preemergence): 100
Plant response rating, Surinam grass [4, 19]: 100
Plant response rating, Bermudagrass [5, 15]: 100
Plant response rating, Bermudagrass [5, 18]: 100
Plant response rating (0 to 100 where 0 is no effect and 100 is complete control), Bermudagrass ([5]; preemergence): 100
Plant response rating, Bermudagrass [5, 19]: 100
Plant response rating (0 to 100), Cocklebur ([6]; preemergence): 50
Plant response rating, Cocklebur [6, 19]: 20
Plant response rating, Ragweed, Common [7, 15]: 100
Plant response rating, Ragweed, Common [7, 18]: 100
Plant response rating (0 to 100), Ragweed, Common ([7]; preemergence): 100
Plant response rating, Ragweed, Common [7, 19]: 100
Plant response rating, Corn (corn (Zea mays); [15]): 30
Plant response rating, Corn (corn (Zea mays); [18]): 30
Plant response rating (0 to 100), Corn (corn (Zea mays); preemergence): 90
Plant response rating, Corn (corn (Zea mays); [19]): 60
Plant response rating, Crabgrass [8, 15]: 100
Plant response rating, Crabgrass [8, 18]: 100
Plant response rating (0 to 100), Crabgrass ([8]; preemergence): 100
Plant response rating, Crabgrass [8, 19]: 100
Plant response rating, Foxtail, Giant [9, 15]: 100
Plant response rating, Foxtail, Giant [9, 18]: 50
Plant response rating (0 to 100), Foxtail, Giant ([9]; preemergence): 100
Plant response rating, Foxtail, Giant [9, 19]: 90
Plant response rating, Goosegrass [10, 15]: 100
Plant response rating, Goosegrass [10, 18]: 100
Plant response rating (0 to 100), Goosegrass ([10]; preemergence): 100
Plant response rating, Goosegrass [10, 19]: 100
Plant response rating, Johnsongrass [11, 15]: 100
Plant response rating, Johnsongrass [11, 18]: 90
Plant response rating (0 to 100), Johnsongrass ([11]; preemergence): 100
Plant response rating, Johnsongrass [11, 19]: 100
Plant response rating, Kochia (kochia (Kochia scoparia); [15]): 100
Plant response rating, Kochia (kochia (Kochia scoparia); [18]): 100
Plant response rating (0 to 100), Kochia (kochia (Kochia scoparia); preemergence): 100
Plant response rating, Kochia (kochia (Kochia scoparia); [19]): 100
Plant response rating, Lambsquarters [12, 15]: 100
Plant response rating, Lambsquarters [12, 18]: 100
Plant response rating (0 to 100), Lambsquarters ([12]; preemergence): 100
Plant response rating, Lambsquarters [12, 19]: 100
Plant response rating, Morningglory [13, 15]: 90
Plant response rating, Morningglory [13, 18]: 60
Plant response rating (0 to 100), Morningglory ([13]; preemergence): 100
Plant response rating, Morningglory [13, 19]: 100
Plant response rating, Soybean (soybean (Glycine max); [15]): 80
Plant response rating, Soybean (soybean (Glycine max); [18]): 60
Plant response rating (0 to 100), Soybean (soybean (Glycine max); preemergence): 100
Plant response rating, Soybean (soybean (Glycine max); [19]): 100
Plant response rating, Nutsedge [14, 15]: 20
Plant response rating, Nutsedge [14, 18]: 0
Plant response rating (0 to 100), Nutsedge ([14]; preemergence): 30
Plant response rating, Nutsedge [14, 19]: 30
Plant response rating, Sunflower (Sunflower): 40
